Reference: patent US11535643B2, “Macrolides with modified desosamine sugars and uses thereof” (President and Fellows of Harvard College, priority 2015, dated 2022)
≈ marks a conversion by molar mass, not a printed value. Where two headings read alike, the source gives them in different places.

Tests used:
Assay type in all cases: cell-based
[1] = test system: S. aureus; test: Broth dilution MIC determination (CLSI) against S. aureus strains; conditions: Staphylococcus aureus
Procedure, shortened: (§1)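 MICs were determined by CLSI standard broth dilution against multiple strains, including multidrug-resistant isolates, with emphasis on macrolide resistance mechanisms. Azithromycin and solithromycin served as control compounds.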

[2] = test system: S. pneumoniae; test: Broth dilution MIC determination (CLSI) against S. pneumoniae strains; conditions: Streptococcus pneumoniae
Procedure, shortened: as §1

[3] = test system: H. influenzae; test: Broth dilution MIC determination (CLSI) against H. influenzae strains; conditions: Haemophilus influenzae
From the text: Minimum inhibitory concentrations (MICs) for macrolides described herein have been determined for unique strains of S. aureus, S. pneumoniae, S. pyogenes, E. faecalis, E. coli, A. baumannii, K. pneumoniae, P. aeruginosa, and H. influenzae, including several multidrug-resistant strains, with a special focus on macrolide resistant mechanisms. Azithromycin and solithromycin were included as control compounds. CLSI standard procedures for broth dilution MIC determination were used. Data for exemplary compounds described herein is shown in Tables M1-M7 and in Tables N1-N4.

[4] = test system: A. baumannii; test: Broth dilution MIC determination (CLSI) against A. baumannii strains; conditions: Acinetobacter baumannii
Procedure, shortened: as §1

[5] = test system: E. faecalis; test: Broth dilution MIC determination (CLSI) against E. faecalis strains; conditions: Enterococcus faecalis
Procedure, shortened: as §1

[6] = test system: E. coli; test: Broth dilution MIC determination (CLSI) against E. coli strains; conditions: Escherichia coli
Procedure, shortened: as §1

[7] = test system: K. pneumoniae; test: Broth dilution MIC determination (CLSI) against K. pneumoniae strains; conditions: Klebsiella pneumoniae
Procedure, shortened: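 CLSI broth-dilution MICs across a panel including multidrug- and macrolide-resistant strains, with azithromycin and solithromycin as control compounds.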

[8] = test system: P. aeruginosa; test: Broth dilution MIC determination (CLSI) against P. aeruginosa strains; conditions: Pseudomonas aeruginosa
Procedure, shortened: as §1

[9] = test system: S. pyogenes; test: Broth dilution MIC determination (CLSI) against S. pyogenes strains; conditions: Streptococcus pyogenes
Procedure, shortened: as §1

[10] = ATCC29213, ATCC29213, read-out: MIC S. aureus ATCC29213
[11] = MRSA / USA100, MRSA: USA100, read-out: MIC S. aureus MRSA: USA100
[12] = MRSA / USA300, MRSA: USA300, read-out: MIC S. aureus MRSA: USA300
[13] = USA600, USA600, GISA, read-out: MIC S. aureus USA600, GISA
[14] = read-out: MIC S. aureus erm A genotype
[15] = ATCC49619, ATCC49619, read-out: MIC S. pneumoniae ATCC49619
[16] = erm B + mef A genotype, read-out: MIC S. pneumoniae erm B + mef A genotype
[17] = erm B + tet(M, O) genotype, read-out: MIC S. pneumoniae erm B + tet(M, O) genotype
[18] = ATCC49247, ATCC49247, read-out: MIC H. influenzae ATCC49247
[19] = erythro > 4, azithro 1, read-out: MIC H. influenzae erythro > 4, azithro 1
[20] = ATCC19606, ATCC19606, read-out: MIC A. baumannii ATCC19606
[21] = imipenem-resistant, read-out: MIC A. baumannii imipenem-resistant
[22] = ATCC29212, ATCC29212, read-out: MIC E. faecalis ATCC29212
[23] = Vancomycin-resistant, read-out: MIC E. faecalis Vancomycin-resistant
[24] = ATCC25922, ATCC25922, read-out: MIC E. coli ATCC25922
[25] = read-out: MIC E. coli NDM-1, NDM-1
[26] = ATCC10031, ATCC10031, read-out: MIC K. pneumoniae ATCC10031
[27] = KPC-2, read-out: MIC K. pneumoniae KPC-2
[28] = ATCC27853, read-out: MIC P. aeruginosa ATCC27853
[29] = ATCC19615, ATCC19615, read-out: MIC S. pyogenes ATCC19615
[30] = macrolide-resistant, read-out: MIC S. pyogenes macrolide-resistant

Row | SMILES | MIC [1, 10] | MIC [1, 11] | MIC [1, 12] | MIC [1, 13] | MIC [1, 14] | MIC [2, 15] | MIC [2, 16] | MIC [2, 17] | MIC [3, 18] | MIC [3, 19] | MIC [4, 20] | MIC [4, 21] | MIC [5, 22] | MIC [5, 23] | MIC [6, 24] | MIC [6, 25] | MIC [7, 26] | MIC [7, 27] | MIC [8, 28] | MIC [9, 29] | also measured
1 | CC[C@H]1OC(=O)[C@H](C)C(=O)[C@H](C)[C@@H](O[C@@H]2OC(CNC(=N)N)CC(N(C)C)C2O)[C@](C)(OC)C[C@@H](C)CN[C@H](C)[C@H]2N(CCCCn3cc(-c4cccc(N)c4)nn3)C(=O)O[C@]12C (stereo partly drawn) [FSM-21843] | > 32 µg/mL | > 32 µg/mL | > 32 µg/mL | > 32 µg/mL | > 32 µg/mL | 0.5 µg/mL (≈ 0.565 µM) | 32 µg/mL | 0.25 µg/mL | 32 µg/mL (≈ 36.2 µM) | 32 µg/mL (≈ 36.2 µM) | > 32 µg/mL | > 32 µg/mL | > 32 µg/mL | > 32 µg/mL | > 32 µg/mL | > 32 µg/mL | 32 µg/mL (≈ 36.2 µM) | > 32 µg/mL | > 32 µg/mL | 2 µg/mL (≈ 2.26 µM) | MIC ([2]; read-out: MIC S. pneumoniae mef A genotype, mef A genotype): 8 µg/mL (≈ 9.04 µM); MIC ([2]; read-out: MIC S. pneumoniae mef A genotype, mef A genotype, first of two such columns (c3)): 4 µg/mL (≈ 4.52 µM); MIC [9, 30]: 8 µg/mL (≈ 9.04 µM)
2 | CC[C@H]1OC(=O)[C@H](C)C(=O)[C@H](C)[C@@H](O[C@@H]2OC(Cn3cc(-c4cccc(N)n4)nn3)CC(N(C)C)C2O)[C@](C)(OC)C[C@@H](C)CN[C@H](C)[C@H]2N(CCCCn3cc(-c4cccc(N)c4)nn3)C(=O)O[C@]12C (stereo partly drawn) [FSM-22124] | 4 µg/mL (≈ 4.05 µM) | > 32 µg/mL | > 32 µg/mL | > 32 µg/mL | > 32 µg/mL | ≤ 0.0312 µg/mL | 0.5 µg/mL | ≤ 0.0312 µg/mL | 2 µg/mL (≈ 2.03 µM) | 1 µg/mL (≈ 1.01 µM) | 16 µg/mL (≈ 16.2 µM) | 16 µg/mL (≈ 16.2 µM) | 0.25 µg/mL (≈ 0.253 µM) | > 32 µg/mL | 16 µg/mL (≈ 16.2 µM) | > 32 µg/mL | 4 µg/mL (≈ 4.05 µM) | 32 µg/mL (≈ 32.4 µM) | > 32 µg/mL | ≤ 0.0312 µg/mL | MIC ([4]; IMP-4, read-out: MIC A. baumannii IMP-4): > 32 µg/mL; MIC ([4]; chromosomal class C, read-out: MIC A. baumannii chromosomal class C): 16 µg/mL (≈ 16.2 µM); MIC ([6]; read-out: MIC E. coli CTX-M-14, CTX-M-14): > 32 µg/mL; MIC ([6]; read-out: MIC E. coli TEM-1, TEM-1): 16 µg/mL (≈ 16.2 µM); MIC ([7]; SHV-12, read-out: MIC K. pneumoniae SHV-12): > 32 µg/mL; MIC ([7]; TEM-10, read-out: MIC K. pneumoniae TEM-10): 8 µg/mL (≈ 8.1 µM); MIC ([8]; read-out: MIC P. aeruginosa HPA101-1477): > 32 µg/mL; MIC [9, 30]: 2 µg/mL (≈ 2.03 µM)
